Data on two compounds can be found in publication PMC11816618, “Pharmacokinetic profile and in vivo anticancer efficacy of anagrelide administered subcutaneously in rodents” (Drug Delivery, 2025).

Molecules are shown by their SMILES. A value given as a limit tells only on which side of the number the result lay.

A short description of data set [1]: Long-term plasma exposure after a single SC ANA dose (56-day follow-up), plasma LC-MS/MS. The class given is in vivo, Sprague-Dawley rats. To be noted: male SD rats, n = 5, 56-day follow-up. On the procedure:
To monitor the sustained release of SC ANA in the long term, 10 male SD rats were treated with a single dose of either 7.0 mg/kg (n = 5) or 35.0 mg/kg (n = 5). The rats were purchased from SPF Biotechnology Co. Ltd. (Beijing, China). Animals were acclimated to the test facility for at least three days, during which their general health was checked by veterinary staff or other authorized personnel. Animals were kept in polycarbonate cages containing absorbent corncob bedding, with a maintained temperature range of +20-25 °C and a 12-h light/dark cycle. Animals had access to food and drinking water ad libitum during acclimation and the experiment. At the end of the study, the rats were euthanized by exposure to an increasing concentration of CO2. […] The SC formulation was prepared by dissolving micronized ANA (5 μm particle size) in an oily triglyceride ester of saturated caprylic and capric fatty acids and glycerol (Miglyol® 810 N, IOI Oleo GmbH, Hamburg, Germany). […] To evaluate plasma concentration-time profiles, blood samples were collected from the jugular vein in EDTA tubes and stored at -70 °C until further analysis. […] In the second PK analysis in rats with a longer follow-up time, blood samples were collected at 0, 30 min, 1 […], and 56 d after dosage. SD rat plasma was analyzed for ANA, 3-OH-ANA, and RL603 concentrations by Pharmaron (Beijing, China). ANA, 3-hydroxy-anagrelide (CAS No. 733043-41-9, Cat. No. sc-206647, Santa Cruz Biotechnology, Inc., Dallas, TX), and RL603 (CAS No. 327602-34-6, Cat. No. sc-391661, Santa Cruz Biotechnology, Inc., Dallas, TX) were used as reference items in calibration standards and quality control (QC) samples. The HPLC and the MS/MS (LCMS-8060) instruments were both from SHIMADZU (Kyoto, Japan), and the column used was a Raptor Biphenyl column (2.7 μm, 50 × 2.1 mm, Restek, Bellefonte, PA). The desired serial concentrations of working solutions were achieved by diluting analyte stock solution with 50% acetonitrile in water. […] QC samples at 0.5, 1, 2, 50, and 800 ng/mL were prepared independently of those used for the calibration curves. These QC samples were prepared on the day of analysis in the same way as calibration standards. Carbamazepine (CAS No. 298-46-4, Sigma-Aldrich, St. Louis, MO) was used as an internal standard for all analytes. Altogether, 55 μL of standards, 55 μL of QC samples, and 55 μL of test samples (comprising 50 μL of plasma and 5 μL of blank solution) were added to 200 μL of acetonitrile containing an internal standard mixture to precipitate protein. The samples were then vortexed for 30 seconds. After centrifugation at 4000 × g (+4 °C) for 5 min, the supernatant was diluted threefold with water, and 2 μL of the diluted supernatant was injected into the LC/MS/MS system for quantitative analysis. The transitions were 256.00-198.90 m/z for anagrelide hydrochloride, 272.00-198.95 m/z for 3-hydroxy anagrelide, 216.00-198.95 m/z for RL603, and 237.20-194.10 m/z for carbamazepine. […] Plasma drug concentration-time profiles were drawn by the average plasma concentrations at specific time points using Microsoft Excel (Redmond, WA). […] Certara, Princeton, NJ) software. Averages of each variable were used when PK values were compared.

Data set [2] in a line: PK comparison between three administration routes (IV, PO, SC), plasma LC-MS/MS. Format: in vivo, Sprague-Dawley rats. To be noted: for Tmax: male, plasma, read-out: Tmax. The procedure:
The rats were purchased from SPF Biotechnology Co. Ltd. (Beijing, China). Animals were acclimated to the test facility for at least three days, during which their general health was checked by veterinary staff or other authorized personnel. Animals were kept in polycarbonate cages containing absorbent corncob bedding, with a maintained temperature range of +20-25 °C and a 12-h light/dark cycle. Animals had access to food and drinking water ad libitum during acclimation and the experiment. At the end of the study, the rats were euthanized by exposure to an increasing concentration of CO2. […] The SC formulation was prepared by dissolving micronized ANA (5 μm particle size) in an oily triglyceride ester of saturated caprylic and capric fatty acids and glycerol (Miglyol® 810 N, IOI Oleo GmbH, Hamburg, Germany). […] To evaluate plasma concentration-time profiles, blood samples were collected from the jugular vein in EDTA tubes and stored at -70 °C until further analysis. […] In the second PK analysis in rats with a longer follow-up time, blood samples were collected at 0, 30 min, 1 […], and 56 d after dosage. SD rat plasma was analyzed for ANA, 3-OH-ANA, and RL603 concentrations by Pharmaron (Beijing, China). ANA, 3-hydroxy-anagrelide (CAS No. 733043-41-9, Cat. No. sc-206647, Santa Cruz Biotechnology, Inc., Dallas, TX), and RL603 (CAS No. 327602-34-6, Cat. No. sc-391661, Santa Cruz Biotechnology, Inc., Dallas, TX) were used as reference items in calibration standards and quality control (QC) samples. The HPLC and the MS/MS (LCMS-8060) instruments were both from SHIMADZU (Kyoto, Japan), and the column used was a Raptor Biphenyl column (2.7 μm, 50 × 2.1 mm, Restek, Bellefonte, PA). The desired serial concentrations of working solutions were achieved by diluting analyte stock solution with 50% acetonitrile in water. […] These QC samples were prepared on the day of analysis in the same way as calibration standards. Carbamazepine (CAS No. 298-46-4, Sigma-Aldrich, St. Louis, MO) was used as an internal standard for all analytes. Altogether, 55 μL of standards, 55 μL of QC samples, and 55 μL of test samples (comprising 50 μL of plasma and 5 μL of blank solution) were added to 200 μL of acetonitrile containing an internal standard mixture to precipitate protein. The samples were then vortexed for 30 seconds. After centrifugation at 4000 × g (+4 °C) for 5 min, the supernatant was diluted threefold with water, and 2 μL of the diluted supernatant was injected into the LC/MS/MS system for quantitative analysis. The transitions were 256.00-198.90 m/z for anagrelide hydrochloride, 272.00-198.95 m/z for 3-hydroxy anagrelide, 216.00-198.95 m/z for RL603, and 237.20-194.10 m/z for carbamazepine. […] Plasma drug concentration-time profiles were drawn by the average plasma concentrations at specific time points using Microsoft Excel (Redmond, WA). […] Certara, Princeton, NJ) software. Averages of each variable were used when PK values were compared.

[3] abbreviates: Sprague-Dawley, rat, analyte in plasma after single SC ANA dose 7 mg/kg.
Where [4] appears, read: Sprague-Dawley, rat, analyte in plasma after single SC ANA dose 35 mg/kg.
The mark [5] stands for this setting: Sprague-Dawley, rat, analyte in plasma after single ANA dose 0.5 mg/kg IV, male SD rats, n = 3, mean ± SD.
[6] abbreviates: Sprague-Dawley, rat, analyte in plasma after single ANA dose 2.5 mg/kg PO, male SD rats, n = 3, mean ± SD.
Where [7] appears, read: analyte in plasma after single SC ANA dose 7 mg/kg.
Setting [8] is: analyte in plasma after single SC ANA dose 35 mg/kg.

One may read the AUC(0-inf) as total exposure, with the tail of the curve extrapolated. High values mean high exposure, low ones low exposure. As usually defined, the AUC(0-t) is exposure summed from dosing to a finite time, without extrapolation to infinity. The low end stands for low exposure, the high end for high exposure. What is called half-life is how long it takes for the measured level to halve. A higher half-life goes with slow loss. In general, Cmax refers to the highest concentration seen after dosing. As a reminder, the Tmax is the time at which the peak concentration occurs. On to `NC1=Nc2ccc(Cl)c(Cl)c2CN1` [RL603, 2‐amino‐5,6‐dichloro‐3,4‐dihydroquinazolin], for which the figures for the AUC(0-inf) in data set [1] (setting [3]), in data set [1] (setting [4]) and in data set [2] (setting [6]) were 1530 ± 1540 ng·h/mL, 2280 ± 1210 ng·h/mL and 34.8 ± 9.94 ng·h/mL, respectively. The results for the exposure AUC(0-t) in data set [1] (setting [3]), in data set [1] (setting [4]) and in data set [2] (setting [6]) were 351 ± 85.7 ng·h/mL, 925 ± 141 ng·h/mL and 24.9 ± 4.29 ng·h/mL, respectively. The half-life in data set [1] (setting [3]) is 895 h; in data set [1] (setting [4]), 285 h; in data set [2] (setting [5]), 0.98 ± 0.24 h; in data set [2] (setting [6]), 13.1 ± 5.29 h. Moreover, the Cmax stood at 1.08 ± 0.26 ng/mL in data set [1] (Sprague-Dawley, rat, analyte in plasma after single SC ANA dose 7 mg/kg, read-out: Cmax); 2.4 ± 1.28 ng/mL in data set [1] (Sprague-Dawley, rat, analyte in plasma after single SC ANA dose 35 mg/kg, read-out: Cmax); 12.3 ± 2.85 ng/mL in data set [2] (setting [5]); 3.48 ± 1.01 ng/mL in data set [2] (setting [6]). Also, the Tmax in data set [1] (Sprague-Dawley, rat, analyte in plasma after single SC ANA dose 7 mg/kg, read-out: Tmax) is 19.6 ± 9.84 h; in data set [1] (Sprague-Dawley, rat, analyte in plasma after single SC ANA dose 35 mg/kg, read-out: Tmax) it was 92.8 ± 113 h; in data set [2] (Sprague-Dawley, rat, iv, 0.5 mg/kg, analyte in plasma after single ANA dose 0.5 mg/kg IV, male SD rats, n = 3, mean ± SD) it was 1 ± 0.87 h; in data set [2] (Sprague-Dawley, rat, po, 2.5 mg/kg, analyte in plasma after single ANA dose 2.5 mg/kg PO, male SD rats, n = 3, mean ± SD), 1.67 ± 0.58 h. The “plasma concentration (not detected above the quantifiable limit)” value in data set [2] (after SC ANA 1.0 mg/kg, SD rats) is recorded as below 0.2 ng/mL.
In data set [1] (setting [7]), `O=C1NC2=Nc3ccc(Cl)c(Cl)c3CN2C1O` (centres unmarked) [3-Hydroxy-anagrelide, 3′-hydroxy-anagrelide] returned an AUCinf of 699.77 ± 705.45 ng·h/mL, an AUClast of 86.57 ± 60.96 ng·h/mL, a Cmax of 0.46 ± 0.09 ng/mL and a T1/2 of 1099 ± 945.8 h. The Tmax in data set [1] (setting [7]) was 19.00 ± 35.34 h. Further, in data set [1] (setting [8]), the AUCinf is 2492.52 ± 2459.44 ng·h/mL, the AUClast came to 563.51 ± 106.90 ng·h/mL, the Cmax amounted to 1.75 ± 0.61 ng/mL and the T1/2 worked out at 377.8 ± 200 h. The Tmax in data set [1] (setting [8]) was found to be 46.00 ± 95.07 h.
